This note sets out measurements from patent US20250288573A1 (H. LEE MOFFITT CANCER CENTER AND RESEARCH INSTITUTE, INC., priority 2018, published 2025).

The assay concerns the target T1, CRBN (Homo sapiens, UniProt Q96SW2).
T1 construct: endogenous in cells; host or cells: primary human T cells / CD8+ T cells from peripheral blood
The assay is described as follows: Western blot for expression of CRBN relative to vinculin in human T cells (CRBN degradation). The format is cell-based. The note with it: for remaining activity at 10 µM / remaining activity at 0.01 µM: read-out: Relative Density of CRBN (% of DMSO); for remaining activity at 0.01 µM: 24 h, 10nM, human T cells, 24 hours; for CRBN Degradation ** (WB): grade (+) to (++++) or words, key not given. The text has this:
Bortez=bortezomib; MG132=proteasome inhibitor; MLN4924=NEDD8 inhibitor.
This assay is a standard Western blot assay for expression of CRBN relative to vinculin.
[…] 0.1 percent DMSO was used as a vehicle control.
A general note: Immunoblotting shows a protein as a band on a membrane.

T1 sequence (Q96SW2 whole entry): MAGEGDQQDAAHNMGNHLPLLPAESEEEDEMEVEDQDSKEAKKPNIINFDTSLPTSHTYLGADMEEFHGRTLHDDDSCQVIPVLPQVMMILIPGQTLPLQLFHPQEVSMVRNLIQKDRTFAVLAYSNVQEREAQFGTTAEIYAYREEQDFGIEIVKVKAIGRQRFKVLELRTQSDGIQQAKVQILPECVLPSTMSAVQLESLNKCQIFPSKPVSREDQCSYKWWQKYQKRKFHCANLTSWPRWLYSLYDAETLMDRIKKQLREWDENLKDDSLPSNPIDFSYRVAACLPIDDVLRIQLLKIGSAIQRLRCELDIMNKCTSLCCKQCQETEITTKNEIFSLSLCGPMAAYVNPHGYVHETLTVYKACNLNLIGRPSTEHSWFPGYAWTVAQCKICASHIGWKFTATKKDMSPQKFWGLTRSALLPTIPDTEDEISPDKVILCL

Consider `Cc1nc2cccc(NC(=O)Cn3cc(CCCC(=O)Nc4cccc5c4CN(C4CCC(=O)NC4=O)C5=O)nn3)c2c(=O)n1C1CCC(=O)NC1=O` (stereo not shown) [XS01-123, N-(2-(2,6-Dioxopiperidin-3-yl)-1-oxoisoindolin-4-yl)-4-(1-(2-((3-(2,6-dioxopiperidin-3-yl)-2-methyl-4-oxo-3,4-dihydroquinazolin-5-yl)amino)-2-oxoethyl)-1H-1,2,3-triazol-4-yl)butanamide], for which the remaining activity at 10 µM was found to be 151% and the remaining activity at 0.01 µM is 243%.
As to `O=C1CCC(N2Cc3c(NC(=O)CCc4cn(CC(=O)Nc5cccc6c5CN(C5CCC(=O)NC5=O)C6=O)nn4)cccc3C2=O)C(=O)N1` (stereo not shown) [XS01-113, N-(2-(2,6-dioxopiperidin-3-yl)-1-oxoisoindolin-4-yl)-3-(1-(2-((2-(2,6-dioxopiperidin-3-yl)-1-oxoisoindolin-4-yl)amino)-2-oxoethyl)-1H-1,2,3-triazol-4-yl)propanamide], the remaining activity at 10 µM worked out at 106% and the remaining activity at 0.01 µM amounted to 225%.
For `O=C1CCC(NC(=O)CCCC(=O)NC2CCC(=O)NC2=O)C(=O)N1` (stereo not shown) [XS01-095, N^1,N^5-Bis(2,6-dioxopiperidin-3-yl)glutaramide], the remaining activity at 10 µM came to 104% and the remaining activity at 0.01 µM was found to be 84.6%.
In the same order, the values of `O=C1CC[C@H](N2Cc3c(CCCOCCOCCCc4cccc5c4CN([C@H]4CCC(=O)NC4=O)C5=O)cccc3C2=O)C(=O)N1` [XS01-011, (3S,3'S)-3,3′-(((Ethane-1,2-diylbisbis(oxy))bisbis(propane-3,1-diyl))bisbis(1-oxoisoindoline-4,2-diyl))bisbis(piperidine-2,6-dione)] are 38.1% and 3.42%.
In the case of `O=C1CCC(N2C(=O)c3cccc(NC(=O)CCc4cn(CC(=O)Nc5cccc6c5C(=O)N(C5CCC(=O)NC5=O)C6=O)nn4)c3C2=O)C(=O)N1` (stereo not shown) [XS01-126, N-(2-(2,6-Dioxopiperidin-3-yl)-1,3-dioxoisoindolin-4-yl)-3-(1-(2-((2-(2,6-dioxopiperidin-3-yl)-1,3-dioxoisoindolin-4-yl)amino)-2-oxoethyl)-1H-1,2,3-triazol-4-yl)propanamide], the remaining activity at 10 µM was determined as 131% and the remaining activity at 0.01 µM was found to be 207%.
On to `O=C1CCC(NC(=O)c2cccc(NC(=O)CCCCCCCCC(=O)Nc3cccc(C(=O)NC4CCC(=O)NC4=O)c3)c2)C(=O)N1` (stereo not shown) [XS01-075, N^1,N^10-Bis(3-((2,6-dioxopiperidin-3-yl)carbamoyl)phenyl)decanediamide], for which the remaining activity at 10 µM came to 63.4%.
Take `Cc1nc2cccc(C#CCOCCOCCOCC#Cc3cccc4nc(C)n(C5CCC(=O)NC5=O)c(=O)c34)c2c(=O)n1C1CCC(=O)NC1=O` (stereo not shown) [MA10-153, 3,3′-((((Oxybis(ethane-2,1-diyl))bis(oxy))bis(prop-1-yne-3,1-diyl))bis(2-methyl-4-oxoquinazoline-5,3(4H)-diyl))bis(piperidine-2,6-dione)]: the remaining activity at 10 µM stood at 208%, the remaining activity at 0.01 µM came to 14.8% and the “CRBN Degradation ** (WB)” value is reported as “No Degradation”.
In the case of `Cc1nc2cccc(NC(=O)CCCCCCCCC(=O)Nc3cccc4nc(C)n(C5CCC(=O)NC5=O)c(=O)c34)c2c(=O)n1C1CCC(=O)NC1=O` (stereo not shown) [MA10-090, N1,N10-bis(3-(2,6-Dioxopiperidin-3-yl)-2-methyl-4-oxo-3,4-dihydroquinazolin-5-yl)decanediamide], the remaining activity at 10 µM was 82.2% and the remaining activity at 0.01 µM worked out at 132%.
With `Cc1nc2cccc(CCc3ccc(CCc4cccc5nc(C)n(C6CCC(=O)NC6=O)c(=O)c45)cc3)c2c(=O)n1C1CCC(=O)NC1=O` (stereo not shown) [XS01-038, 3,3′-((1,4-Phenylenebis(ethane-2,1-diyl))bis(2-methyl-4-oxoquinazoline-5,3(4H)-diyl))bis(piperidine-2,6-dione)], the remaining activity at 10 µM was determined as 133%, the remaining activity at 0.01 µM is 29% and the “CRBN Degradation ** (WB)” value was “No degradation”.
